Measurements reported in patent US20240374879A1, “METHODS AND COMPOSITIONS TO REDUCE CELLULAR DEPOSITION, AND HYDROCEPHALUS SHUNT FAILURE” (Wayne State University, priority 2021, published 2024).

What was measured:
Human astrocyte cells [1] = experiment: Cell counts of human astrocytes cultured on PDMS discs, GIT 27 as pre-, simultaneous or post-treatment; assay type: cell-based; details: for number of cells compared to associated control: vs control; for % Change of average Cell Counts, GIT 27 vs DMSO treated vehicle: GIT 27 1000 μg/mL
Protocol: PDMS Catheter Creation: Catheter samples were made by creating a polydimethylsiloxane (PDMS, silicone) solution, Sylgard 184 (Dow Corning), at a ratio of 10:1 elastomer to curing agent. This solution was then homogenized and placed into a degasser to remove bubbles. Once all the air bubbles were removed, 200 μL of the PDMS solution was pipetted into a 24 well plate to create flat disk samples for cell culturing. These samples were then degassed again to ensure were no bubbles in the disks and left for 48 hours to cure on a flat substrate.
Media Creation: A media stock solution was created by combining astrocyte media (ScienCell), supplement kit, 10 mL fetal bovine serum (FBS), 5 mL penicillin/streptomycin, and 5 mL astrocyte growth serum (ScienCell), and an additional 10 mL FBS (ScienCell). IL-1β and IL-10 were diluted to a concentration of 50,000 ng/mL and 100,000 ng/mL, respectively, in phosphate buffer solution (PBS, w/v). GIT 27 was dissolved in a dimethyl sulfoxide (DMSO) vehicle (Sigma-Aldrich) to a concentration of 20 mg/mL (w/v).
Media solutions for the different groups were made directly before each media change. Cytokines IL-1β or IL-10 were added to the media stock solution for a final concentration of 14.67 ng/mL. GIT 27 was added for a concentration of 1000 μg/mL in the media stock solution for our experimental group. […] Our vehicle group contained 50 μL/mL DMSO alone, which is proportional to the amount in the GIT 27 treated group. Concentrations were then made for evaluation of dose and time dependency (FIGS. 6A-6F).
Cell Culture: Human astrocyte cells were initially grown in T75 flasks with media changes every three days using basic astrocyte media and washed with Hanks Balanced Salt Solution without Calcium and Magnesium (Gibco). Once the flasks came to confluency, the cells were trypsinized using Trypsin-EDTA at 0.25% (Gibco) and seeded at a seeding density of 250,000 cells per well. These samples were broken up into three treatment groups: control, DMSO, and GIT 27 tested as a pre-treatment, simultaneous treatment, and post-treatment (FIGS. 6A-6F). Each group and treatment time were then either exposed to IL-1β or IL-10 separately at concentrations described for media creation.
Cell Count Collection: Images were taking using a microscope (Fisher Scientific) and microscope attachable digital camera following each media change on days 1, 5, 7, 9, 12, and 14. These images were taken at approximately the center of each 24 well plate well with an area of 5.9788 mm^2. Counts were obtained using the FIJI software by converting the images to 32-bit. Contrast was enhanced to the value of 0.5 and background was subtracted to a value of 10. Finally, the threshold was set to 23-70 to obtain the cell count of each image.
Statistical Analysis: Three conditions were tested in this experiment, treatment group, treatment time, and IL B or IL10 exposure, with a total of 16 different samples tested with an n=five of replicates. The three treatment groups tested were a control, vehicle control (DMSO), and GIT 27 (G27). Each treatment group was tested as a pre-treatment (denoted Pre-), dose simultaneous to treatment (denoted Sim-), and post-treatment (denoted Post-) as time points with respect to shunt insertion represented by exposure to either IL-1β (IL1B) or IL-10 (IL10). Utilizing the abbreviations described here we combined these to allow for an easier understand of the results presented. An example of this can be control Pre-IL1B, DMSO Pre-IL1B, and G27 Pre-IL1B which represents the three treatment groups when used as a pre-treatment to IL-1β exposure.

Human astrocyte cells [2] = experiment: Delivery Method: immunofluorescence (DAPI, GFAP) of astrocytes, GIT 27 attached to PDMS or in suspension; assay type: cell-based
Protocol: Delivery Method: Following the nanodrop experiment, it was determined that the minimum concentration necessary to attach GIT 27 to the surface of the PDMS was 1000 μg/mL to display any attachment and release from the catheter. […] Using this concentration for sufficient surface coating, human astrocyte cells were cultured onto PDMS discs coated with GIT 27. Samples were also tested by adding GIT 27 at various concentrations in suspension within the cell culture media. Attached GIT 27 samples were conducted at concentrations 1000 and 3000 μg/mL, and for the in suspension concentrations 5, 50, and 1000 μg/mL in astrocyte media were used.
Immunofluorescence was performed using glial fibrillary acidic protein (GFAP) and 4′,6-diamidino-2-phenylindole (DAPI) solution (ThermoFisher). GFAP primary and secondaries were diluted to a ratio of 1:1000 and 5:1000, respectfully, in 0.4% Triton-X in PBS (w/v). Samples were incubated for 24 hours in each solution. After rinsing the samples with PBS, the samples were incubated in a 1:1000 DAPI solution in 0.4% Triton X solution for 30 minutes. Samples were then imaged submerged in PBS using a confocal microscope at 20× magnification and analyzed using Imaris software.

Solubility of GIT 27 = assay type: physicochemical
[3] = test system: macrophage toll-like receptor (TLR) 4 and TLR 2/6 signaling pathway; details: cited from earlier work
[4] = 1000 μg/mL GIT 27 in suspension, qualitative

In the case of `O=C(O)CC1CC(c2ccccc2)=NO1` (stereo not shown) [GIT 27, 4,5-Dihydro-3-phenyl-5-isoxazoleacetic acid], the “cell count by treatment time” value (Human astrocyte cells [1]; G27 Pre-IL1B compared to G27 Post-IL1B) is reported as “significantly fewer”, the “cell count by treatment time” value (Human astrocyte cells [1]; G27 Pre-IL1B compared to Sim-IL1B) is reported as “insignificantly less” and the “cell count by treatment time” value (Human astrocyte cells [1]; G27 Pre-IL10 compared to G27 Post-IL10) is reported as “significantly fewer”. For the same molecule, the “cell count by treatment time” value (Human astrocyte cells [1]; G27 Sim-IL10 compared to G27 Post-IL10) was “significantly lower”, the “number of cells compared to associated control” value (Human astrocyte cells [1]; Post-IL1B) was “not significantly different” and the “cell count, difference between the three treatment groups” value (Human astrocyte cells [1]; Post-IL10) was “no effect”. The “% Change of average Cell Counts, GIT 27 vs DMSO treated vehicle” value (“% Change of average Cell Counts” for short) (Human astrocyte cells [1]; Post-Treatment (C), exposed to IL-1β) was 94.25%, the “% Change of average Cell Counts” value (Human astrocyte cells [1]; Post-Treatment (C), exposed to IL-10) was −9.74% and the “cell count compared to DMSO” value (Human astrocyte cells [1]; Pre-IL1B, vs DMSO Pre-IL1B) was “insignificantly lower”. The “cell count compared to control” value (Human astrocyte cells [1]; Pre-IL1B, vs control Pre-IL1B) was “significantly lower”, the “% Change of average Cell Counts” value (Human astrocyte cells [1]; Pre-Treatment (A), exposed to IL-1β) was −15.09% and the “% Change of average Cell Counts” value (Human astrocyte cells [1]; Pre-Treatment (A), exposed to IL-10) was 22.97%. For the same molecule, the “number of cells compared to associated control” value (Human astrocyte cells [1]; Sim-IL1B) was “not significantly different”, the “cell count, difference between the three treatment groups” value (Human astrocyte cells [1]; Sim-IL10) was “no effect” and the “% Change of average Cell Counts” value (Human astrocyte cells [1]; Simultaneous Treatment (B), exposed to IL-1β) was 50.87%. The “% Change of average Cell Counts” value (Human astrocyte cells [1]; Simultaneous Treatment (B), exposed to IL-10) was −5.50%, the “astrocyte cell bodies (GFAP) labeling compared to all other groups” value (Human astrocyte cells [2]; [4]) was “lowest amount” and the “immunofluorescent total cell count (DAPI) labeling compared to all other groups” value (Human astrocyte cells [2]; [4]) was “lowest amount”. The “GFAP levels compared to controls with no GIT 27 exposure” value (Human astrocyte cells [2]; plasma etched samples with GIT 27 attached to the surface) was “increased levels”, the solubility (Solubility of GIT 27) was “only soluble in DMSO” and the “secretion of pro-inflammatory cytokines IL-1β, IL-10 and IFN-γ” value [3] was “reduces”. The TNF-α secretion ([3]; macrophages) was “inhibits”.
